Test system: Varroa destructor
Assay: Contact test of Varroa mite adults on Potter-tower-treated Petri dishes, mortality
Type: in vivo
Conditions: concentration of formulation (WP75) 67 microgramme; in 2 days; adult mites, 4 dishes of 5, spray deposit contact
Description: Varroa mites came from bee colonies provided by a beekeeper. The mite population is kept in a dedicated apiary. For screening needs adults are collected on the same day as the beginning of experiment, either in beehive cells containing brood of worker bees or drones, or directly on bees emerging during collection.
Bee nymphs needed to feed adults of Varroa mites during experiments are choosen within the frames from which Varroa is also collected. They are collected at the stage of nymph with white or pink coloured eyes according methology described by Rembold et Kremer (Characterization of postembryonic developmental stages of the female castes of the honey bee, Apis mellifera L.. Apidologie 11: 29-38).
3 cm diameter Petri dishes were used as confinement material of Varroa mites during experiments. Covers with wire mesh were put on the top of each Petri dish in order to avoid the mites to run away but also to keep favorable humidity for the bee nymph.
Applications were done with a Potter tower (described in “An improved apparatus for applying direct sprays and surface films with data on the electrostatic charge on atomize spray fluids.” Annal of Applied Biology, 39 : 1-28.). The active substance was apllied to achieve uniform distribution on the Petri dish (1.5 mg±0.2 mg/cm^2). A check with distilled water was also tested. […]

Question: How did the “% mortality of Varroa” value turn out when `Nc1nc(N)nc(NC2CC2)n1` [cyromazine] was run?
Answer: 80% in 2 days

— US20140135281A1, “METHODS FOR C[…] MITES” (SYNGENTA PARTICIPATIONS AG, priority 2011, published 2014)
